According to patent publication US20260226073A1 (AURIGENE ONCOLOGY LIMITED, priority 2023, published 2026):

Biological target: T1, human recombinant CBL-b (human Biotin CBL-b recombinant protein a.a. 39-426) (Homo sapiens, UniProt Q13191)
T1 construct: human Biotin CBL-b recombinant protein a.a; 39-426; Biotin (biotinylated); made in house
Assay: Biochemical assay for CBL-b inhibition (ligand displacement TR-FRET)
Format: binding
Conditions: 50 nM CBL-b, 0.3 μM Bodipy FL-Probe, read-out: IC50 (CBL-b inhibition, group)
Experimental: The inhibitory activity of the test compounds was assessed by Ligand displacement TR-FRET assay. The human recombinant CBL-b (human Biotin CBL-b recombinant protein a.a. 39-426; synthesised in-house) was diluted in enzyme assay buffer (20 mM HEPES, 150 mM NaCl, 0.01% Triton X, 0.01% BSA, 0.5 mM TCEP) in a 10 μl volume and plated in 384-well plates (Cat #781075, Greiner) to a final concentration of 50 nM. The enzyme/compound mixture was incubated at RT for 60 min. The Bodipy FL-Probe described in WO 2020/210508 (synthesized in-house) diluted in enzyme assay buffer was added to the plate and incubated for 60 min RT, the final probe concentration was 0.3 μM. After 60 min incubation, 10 μl of detection mix (Terbium Streptavidin, (Cat #PV3576, Invitrogen) diluted in 1× Lance buffer) was added and incubated for 60 min at room temperature. Time-resolved fluorescence (excitation, 320 nm; emission donor, 615 nm; emission acceptor, 665 nm) was monitored by using 2030 multilabel reader Victor5 (PerkinElmer). The IC50 (concentration for half maximal inhibition) and % maximum inhibition of the compounds were estimated by fitting the dose response data to a sigmoidal curve fitting equation using Graph pad Prism software V. 8.

T1 sequence (Q13191 39-426): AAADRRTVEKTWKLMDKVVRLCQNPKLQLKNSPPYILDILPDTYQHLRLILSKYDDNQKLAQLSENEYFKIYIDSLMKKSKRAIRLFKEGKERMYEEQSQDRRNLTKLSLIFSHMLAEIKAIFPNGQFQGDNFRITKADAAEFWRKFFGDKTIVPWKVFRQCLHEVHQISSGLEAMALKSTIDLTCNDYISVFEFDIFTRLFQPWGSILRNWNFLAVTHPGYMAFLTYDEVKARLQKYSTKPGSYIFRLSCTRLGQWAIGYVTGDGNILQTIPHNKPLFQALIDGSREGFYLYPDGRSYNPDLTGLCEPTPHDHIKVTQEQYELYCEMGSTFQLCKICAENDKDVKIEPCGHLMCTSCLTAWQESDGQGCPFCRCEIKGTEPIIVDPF

IC50	Structure (SMILES)
300 to 5000 nM	CN1CC2CC1CN2Cc1cc(N2Cc3ccc(C4(Cc5nncn5C)COC4)cc3C2=O)nc(C(F)(F)F)c1 (stereo not shown) [Compound 81, 2-(4-((5-Methyl-2,5-diazabicyclo[2.2.1]heptan-2-yl)methyl)-6-(trifluoromethyl)-pyridin-2-yl)-6-(3-((4-methyl-4H-1,2,4-triazol-3-yl)methyl)oxetan-3-yl)isoindolin-1-one]
300 to 5000 nM	C[C@@H]1CN(Cc2cc(Cl)nc(N3Cc4ccc(C5(Cc6nncn6C)COC5)cc4C3=O)c2)C[C@H](C)O1 [Compound 191]
300 to 5000 nM	C[C@@H]1CN(Cc2cc(Cl)nc(N3Cc4ccc(C5(Cc6nncn6C)COC5)cc4C3=O)c2)C[C@@H](C)O1 [Compound 177]
300 to 5000 nM	Cc1cc(CNCC2CCCCN2)cc(N2Cc3ccc(-c4ccc(F)cc4-c4nncn4C)cc3C2=O)n1 (stereo not shown) [Compound 339, 6-(4-Fluoro-2-(4-methyl-4H-1,2,4-triazol-3-yl)phenyl)-2-(6-methyl-4-(((piperidin-2-ylmethyl)amino)methyl)pyridin-2-yl)isoindolin-1-one]
80 to 300 nM	C=C(c1cc(C)nc(N2Cc3ccc(-c4ccc(F)cc4-c4nncn4C)cc3C2=O)c1)c1cnn(C)c1 [Compound 332, 6-(4-Fluoro-2-(4-methyl-4H-1,2,4-triazol-3-yl)phenyl)-2-(6-methyl-4-(1-(1-methyl-1H-pyrazol-4-yl)vinyl)pyridin-2-yl)isoindolin-1-one]
300 to 5000 nM	Cc1cn(Cc2cc(N3Cc4ccc(C5(Cc6nncn6C)COC5)cc4C3=O)nc(C(F)(F)F)c2)cn1 [Compound 70, 2-(4-((4-Methyl-1H-imidazol-1-yl)methyl)-6-(trifluoromethyl)pyridin-2-yl)-6-(3-((4-methyl-4H-1,2,4-triazol-3-yl)methyl)oxetan-3-yl)isoindolin-1-one]
80 to 300 nM	Cc1cc(CN)cc(N2Cc3ccc(-c4ccc(F)cc4-c4nncn4C)cc3C2=O)n1 [Compound 331, 2-(4-(Aminomethyl)-6-methylpyridin-2-yl)-6-(4-fluoro-2-(4-methyl-4H-1,2,4triazol-3-yl)phenyl)isoindolin-1-one]
80 to 300 nM	Cc1cc(CNCC2CC2)cc(N2Cc3ccc(-c4ccc(F)cc4-c4ncco4)cc3C2=O)n1 [Compound 287]
80 to 300 nM	Cn1cnnc1CC1(c2ccc3c(c2)C(=O)N(c2cc(CNCC4(C#N)CCC4)cc(Cl)n2)C3)COC1 [Compound 243]
300 to 5000 nM	C[C@@H]1CN(Cc2cc(N3Cc4ccc(C5(Cc6nncn6C)COC5)cc4C3=O)nc(C(F)(F)F)c2)C[C@H](C)O1 [Compound 72, 2-(4-(((2R,6S)-2,6-Dimethylmorpholino)methyl)-6-(trifluoromethyl)pyridin-2-yl)-6-(3-((4-methyl-4H-1,2,4-triazol-3-yl)methyl)oxetan-3-yl)isoindolin-1-one]
80 to 300 nM	CCCC(Cc1nncn1C)c1ccc2c(c1)C(=O)N(c1cc(CNCC3CC3)cc(Cl)n1)C2 (stereo not shown) [Compound 252]
300 to 5000 nM	CCN1CCc2c(cc(N3Cc4ccc(C5(Cc6nncn6C)COC5)cc4C3=O)cc2C(F)(F)F)C1 [Compound 77, 2-(2-Ethyl-5-(trifluoromethyl)-1,2,3,4-tetrahydroisoquinolin-7-yl)-6-(3-((4-methyl-4H-1,2,4-triazol-3-yl)methyl)oxetan-3-yl)isoindolin-1-one]
< 80 nM	Cc1cc(CN(C)CC2CC2)cc(N2Cc3ccc(-c4ccc(F)cc4-c4nncn4C)cc3C2=O)n1 [Compound 312]
80 to 300 nM	CC(Cc1nncn1C)c1cnc2c(c1)C(=O)N(c1cc(CN3CCC[C@H](C)C3)cc(Cl)n1)C2 (stereo partly shown) [Compound 150]
80 to 300 nM	CN1CCN(Cc2cc(N3Cc4ccc(C5(Cc6nncn6C)COC5)cc4C3=O)nc(C(F)(F)F)c2)CC1=O [Compound 63, 2-(4-((4-Methyl-3-oxopiperazin-1-yl)methyl)-6-(trifluoromethyl)pyridin-2-yl)-6-(3-((4-methyl-4H-1,2,4-triazol-3-yl)methyl)oxetan-3-yl)isoindolin-1-one]
80 to 300 nM	Cc1cc(CNCCO)cc(N2Cc3ccc(-c4ccc(F)cc4-c4nncn4C)cc3C2=O)n1 [Compound 301]
